Reference: patent US7294643B2, “UK-1 analogues: methods of preparation and use” (Board of Regents, The University of Texas System, priority 2002, dated 2007)
Where two headings read alike, the source gives them in different places. One block for each compound: values may come before it.

Assays:
[1] = test system: Staphylococcus aureus ATCC 29213; assay: Antimicrobial bioassay, S. aureus; assay type: cell-based; settings: Staphylococcus aureus, ATCC29213
Description: (§1) Antimicrobial Bioassay: Staphylococcus aureus ATCC 29213 and methicillin-resistant S. aureus ATCC 43300 (MRS) were obtained from the American Type Culture Collection (Rockville, Md.) and stored on agar slants at 4° C. until needed. Susceptibility testing was performed using a modified version of the NCCLS methods: “Methods for Dilution Antimicrobial Susceptibility Tests for Bacteria that Grow Aerobically,” M7-A4, Vol. 17, No. 2, NCCLS, (1997) and “Reference Method for Broth Dilution Antifungal Susceptibility Testing of Yeasts; Approved Standard,” M27-A, Vol. 17, No. 9, NCCLS, (1997), both of which are incorporated herein by reference. Microorganisms were subcultured prior to the assay by suspending cells from the slant in Eugon broth (BBL, Maryland) and incubating for 24 hours at 37° C. Inocula were prepared by diluting the subcultured organism in its incubation broth after comparison to the 0.5 McFarland Standard (a BaSO4 suspension) to afford final inocula ranges of S. aureus: 1.0-5.0×10^5 and MRS: 0.2-6.0×10^5 CFU/ml. Test compounds were dissolved in DMSO, serially-diluted using normal saline, and transferred in duplicate to 96 well flat-bottomed microtiter plates. The microbial inocula were added to the samples to achieve a final volume of 200 μl and final compound concentrations starting with 50 μg/ml. Drug [Ciprofloxacin (ICN Biomedicals, Ohio)] as well as growth and blank (media only) controls were added to each test plate. Plates were read at 630 nm using the EL-340 Biokinetics Reader (Bio-Tek Instruments, Vermont) prior to and after incubation at 37° C. for 24 hours. Percent growth was calculated and plotted versus concentration to afford the IC50, or sample concentration that affords 50% growth of the organism relative to controls.

[2] = test system: double-stranded DNA oligonucleotide; assay: DNA binding by ESI-MS; set-up: key: MetalDepend.: all ligand-DNA complex ions also contained a metal ion.; None: no ligand-DNA complex ions observed.; MetalIndepend.: ligand-DNA and ligand-DNA-metal ion complex ions observed; settings: ligand-DNA complex ions, presence or absence of added NiCl2
[3] = test system: methicillin-resistant S. aureus ATCC 43300; assay: Antimicrobial bioassay, methicillin-resistant S. aureus; assay type: cell-based, Staphylococcus aureus; settings: Staphylococcus aureus, ATCC43300
Description: as §1

[4] = alamarBlue cytotoxicity, range over three cell lines; assay type: cell-based; settings: human; range of concentrations required to inhibit growth of MCF-7, HT-29, and PC-3 cells by 50%
Description: (§2) Cytotoxicity Assays. Cell culture cytotoxicity assays were performed using the. alamarBlue method, as described by Ahmed et al., J. Immun. Methods 1994, 170, 211-224, which is incorporated herein by reference. Briefly, aliquots of 100 μL of cell suspension (1.0-2.5×10^3 cells) was placed in 96-well microtiter plates in an atmosphere of 5% CO2 at 37° C. After 24 hours, 100 μL of culture medium and 2 μL of compound in vehicle (culture media with 40% pyridine) or vehicle alone were added, and the plates incubated an additional 72 hours. The final pyridine concentration in all cases was 0.4%; at this pyridine concentration there was no affect on the growth of cells compared to cells in culture media without added pyridine. […] After the culture media had been removed from each well, 200 μL of fresh media and 20 μL of 90% alamarBlue reagent were added, followed by an additional 6 h incubation. The fluorescent intensity was measured using a Spectrafluor Plus plate reader with excitation at 530 nm and emission at 590 nm. Results are reported as IC50 values, the average concentration required to produce a decrease of fluorescent intensity of 50% relative to vehicle-treated controls in two separate determinations.

[5] = Metal ion binding by continuous variation, Ca2+; settings: Ca^2+, methanol, 1:1 complex
Description: (§3) Previous work indicated the metal ion binding mechanism of UK-1, so the method of continuous variation was used to determine the ability of selected UK-1analogues to bind a variety of metal ions. Methanolic solutions of UK-1 or UK-1 analogues and metal ion salts [Ca(NO3)2, Mg(NO3)2, Zn(NO3)2, or Fe(NO3)3] at various molar ratios, and 20 μM combined total concentration, were prepared and the absorbance at 418 nm was determined. […] Compound 2.1 does bind with Ca^2+ and Zn^2+ better than UK-1.
(§4) Continuous variation plots. A 100 μM solution of UK-1 or analogue and 100 AM solutions of Ca(NO3)2, Mg(NO3)2, Zn(NO3)2, or Fe(NO3)3 were prepared in methanol. From these stock solutions, 15 samples (1 mL) of varying mole fraction of the metal ion were prepared at a constant, combined concentration of 20 μM for the ligand and the metal ion. The change in absorbance was monitored from 500 to 200 nm for each sample using as a reference a 1 mL solution containing the same concentration of ligand as the sample being measured but without the metal ion. The maximum absorbance change was typically around 418 nm but varied somewhat for each metal ion. The absorbance at 418 nm was plotted as a function of the mole fraction of the metal ion and the maximum absorbance change was determined. The absorbance of a sample containing the metal ion concentration corresponding to this maximum change and a 15 fold excess of metal ion at this ligand concentration, subtracted from a reference containing the same concentration of ligand but no metal ion was used to normalize the curve and obtain the conditional formation constant as described in the paper to Likussar, W.; Boltz, D. F. Anal. Chem. 1971, 43, 1265-1272, which is incorporated herein by reference.

HL60 cells = assay: alamarBlue cytotoxicity assay, HL60; assay type: cell-based, human; settings: Homo sapiens
Description: as §2

[6] = Metal ion binding by continuous variation, Mg2+; settings: for Association constant for metal ion binding: Mg^2+, methanol, 1:1 complex
Description: as §3, §4

HT-29 cells = assay: alamarBlue cytotoxicity assay, HT-29; assay type: cell-based; settings: Homo sapiens; HT-29, alamarBlue, 72 h
Description: as §2

MCF-7 cells = assay: alamarBlue cytotoxicity assay, MCF-7; assay type: cell-based; settings: Homo sapiens, MCF7; MCF-7, alamarBlue, 72 h
Description: as §2

PC-3 cells = assay: alamarBlue cytotoxicity assay, PC-3; assay type: cell-based, human; settings: Homo sapiens, PC-3, 72 h, PC-3, alamarBlue
Description: as §2

[7] = alamarBlue cytotoxicity, range over four cell lines; assay type: cell-based; settings: human
Description: as §2, with “hours.” for “hours. The final pyridine concentration in all cases was 0.4%; at this pyridine concentration there was no affect on the growth of cells compared to cells in culture media without added pyridine.”, “nm.” for “nm. Results are reported as IC50 values, the average concentration required to produce a decrease of fluorescent intensity of 50% relative to vehicle-treated controls in two separate determinations.”

[8] = Metal ion binding by continuous variation, Zn2+; settings: for Association constant for metal ion binding: Zn^2+, methanol, 1:1 complex
Description: as §3, §4

[9] = Metal ion binding by continuous variation, Fe3+; settings: Fe^3+, methanol, 1:1 complex
Description: as §3, §4

Pseudomonas aeruginosa = assay: Antimicrobial bioassay, P. aeruginosa; assay type: cell-based; settings: P. aeruginosa
Cryptococcus neoformans = assay: Antimicrobial bioassay, Cryptococcus neoformans; assay type: cell-based
Candida albicans = assay: Antimicrobial bioassay, Candida albicans; assay type: cell-based
[10] = test system: gram-positive or gram negative bacteria; settings: cited from earlier work
yeast, or fungi = settings: cited from earlier work
[11] = 50% growth of test organism, NA = no activity observed at concentrations up to 50 μg/mL, read-out: Antibacterial IC50 S. aureus
[12] = 50% growth of test organism, NA = no activity observed at concentrations up to 50 μg/mL, read-out: Antibacterial IC50 Meth-resist S. aureus
[13] = Methacilline-resistant Staph. Aureus, growth inhibited by 50%, read-out: Staph. aureus IC50

Association constant for metal ion binding [5]: 100000 M⁻¹ | Association constant for metal ion binding [6]: 40000 M⁻¹ | Association constant for metal ion binding [8]: 3.2e+06 M⁻¹ | Association constant for metal ion binding [9]: 10000 M⁻¹
Structure (SMILES): COC(=O)c1cccc2[nH]c(-c3cccc4oc(-c5ccccc5O)nc34)nc12 [Compound 2.1, Methyl 2-[2-(2-hydroxyphenyl)-1,3-benzoxazol-4-yl]-1H-benz imidazole-4-carboxylate]
IC50 (HL60 cells; HL-60, 72 h, HL60, alamarBlue, 72 h): 70 µM | IC50 (HT-29 cells): > 100 µM | IC50 (MCF-7 cells): > 100 µM | IC50 (PC-3 cells): > 100 µM | IC50 at 72 h [7]: ≥ 70 µM

IC50 [1, 11]: 43 µM | DNA-Binding ESI-MS [2]: MetalIndepend.^f
Structure (SMILES): O=C(O)c1cccc2oc(-c3ccccc3OCc3ccccc3)nc12 [Compound 2.6, 2-[2-(benzyloxy)phenyl]-1,3-benzoxazole-4-carboxylic acid]
IC50 [3, 12]: 29 µM | IC50 [3, 13]: 29 µg/mL | IC50 at 72 h [7]: > 100 µM | IC50 at 72 h [4]: > 100 µM

IC50 [1, 11]: 102 µM
Structure (SMILES): O=C(O)c1cccc2[nH]c(-c3ccccc3OCc3ccccc3)nc12 [Compound 2.9, 2-[2-(benzyloxy)phenyl]-1H-benzimidazole-4-carboxylic acid]
IC50 [3, 12]: 102 µM | IC50 at 72 h [7]: > 100 µM

Association constant for metal ion binding [5]: 6300 M⁻¹ | IC50 ([1]; S. aureus, read-out: IC50): > 50 µg/mL | Association constant for metal ion binding [6]: 320000 M⁻¹ | DNA-Binding ESI-MS [2]: MetalDepend.^d | IC50 (Pseudomonas aeruginosa): > 50 µg/mL | IC50 (Cryptococcus neoformans): > 50 µg/mL | Association constant for metal ion binding [8]: 1.3e+06 M⁻¹ | IC50 (Candida albicans): > 50 µg/mL | Association constant for metal ion binding [9]: 7900 M⁻¹
Structure (SMILES): COC(=O)c1cccc2oc(-c3ccccc3O)nc12 [Compound 2.13, Methyl 2-(2-hydroxyphenyl)-benzoxazole-4-carboxylate]
IC50 (HL60 cells; HL-60, HL60): 5.7 µM | IC50 (HT-29 cells): 9.1 µM | IC50 (MCF-7 cells): 1.5 µM | IC50 [3, 13]: > 50 µg/mL | IC50 (PC-3 cells): 0.88 µM | IC50 at 72 h [7]: 0.88 to 9.1 µM

Mg^2+ ion complexation ([6]; result in words): does not appear to complex Mg^2+ ions | Zn^2+ ion complexation ([8]; result in words): does appear to form complexes with Zn^2+
Structure (SMILES): Oc1ccccc1-c1nc2ccccc2o1 [Compound 2.17, 2-(2′-hydroxyphenyl)benzoxazole]
IC50 at 72 h [7]: > 100 µM

DNA-Binding ESI-MS [2]: None^e
Structure (SMILES): Oc1ccccc1-c1nc2ccccc2o1 [drawing 10]
IC50 [3, 13]: > 50 µg/mL | IC50 at 72 h [4]: > 100 µM

The remaining lines, values behind:

Structure (SMILES): O=C(O)c1cn(C2CC2)c2cc(N3CCNCC3)c(F)cc2c1=O [Ciprofloxacin]
IC50 [1, 11]: 0.45 µM | DNA-Binding ESI-MS [2]: MetalIndepend.^f | IC50 [3, 12]: 0.45 µM | IC50 [3, 13]: 0.45 µg/mL | IC50 at 72 h [4]: > 100 µM

Structure (SMILES): COC(=O)c1cccc2oc(-c3ccccc3OCc3ccccc3)nc12 [Compound 2.5, Methyl 2-[2-(benzyloxy)phenyl]-1,3-benzoxazole-4-carboxylate]
IC50 at 72 h [7]: > 100 µM

Structure (SMILES): COC(=O)c1cccc2nc(-c3ccccc3O)oc12 [Compound 2.16, Methyl 2-(2-Hydroxy-phenyl)-benzooxazole-7-carboxylate]
IC50 at 72 h [7]: > 100 µM

Structure (SMILES): O=C(O)c1cccc2oc(-c3cccc4oc(-c5ccccc5O)nc34)nc12 [DMUK-1]
activity against Gram-positive and Gram-negative bacteria [10]: have shown activity

Structure (SMILES): COC(=O)c1cccc2oc(-c3cccc4oc(-c5ccccc5OC)nc34)nc12 [MUK-1]
activity against yeast and filamentous fungi (yeast, or fungi): active | activity against Gram-positive and Gram-negative bacteria [10]: have shown activity
